# ChEMBL document CHEMBL1201862, “PubChem BioAssay data set” (2004)
#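 Cells were grown in 96-well plates and exposed to each compound for 48 hours at five concentrations; endpoints were interpolated linearly between bracketing concentrations, or set to the highest concentration if not reached. GI50 marks 50% less growth.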 Active and inactive are the calls of the source. No stated cut-off is given here; in the data, active = GI50 up to about 1.1 µM and inactive = higher.
# What was measured:
# Assay in all cases: NCI anticancer screen, dose series, 48 h
# DMS-273 = tested on: DMS-273
# XF498 = tested on: XF498
# KM-20L2 = tested on: KM-20L2
# M19-MEL = tested on: M19-MEL
# RXF 631 = tested on: RXF 631
# LXFL 529 = tested on: LXFL 529
# Hs-578T = tested on: Hs-578T
# MDA-N = tested on: MDA-N
# BT-549 = tested on: BT-549
SMILES,GI50 (DMS-273),GI50 (XF498),GI50 (KM-20L2),GI50 (M19-MEL),GI50 (RXF 631),GI50 (LXFL 529),GI50 (Hs-578T),GI50 (MDA-N),GI50 (BT-549)
O=C(Nc1ccc(Cl)cc1C(=O)O)c1ccc([N+](=O)[O-])cc1,27.7 µM (inactive),24.9 µM (inactive),21.8 µM (inactive),21.4 µM (inactive),30.1 µM (inactive),15.5 µM (inactive),–,–,–
CCOC(=O)Cc1csc(Nc2ccc(OCC)cc2)n1,–,38.7 µM (inactive),> 100 µM (inactive),> 100 µM (inactive),> 100 µM (inactive),87.3 µM (inactive),–,–,–
COc1cc(/C=C/c2ccc(C)cc2)cc(OC)c1OC,3.79 µM (inactive),6.49 µM (inactive),2.09 µM (inactive),9.98 µM (inactive),–,5.58 µM (inactive),2.56 µM (inactive),0.895 µM (active),5.68 µM (inactive)
COc1ccc(C(=O)N2c3ccccc3N(C)n3cccc3C2CC(=O)O)cc1 (stereo unspecified),> 100 µM (inactive),–,> 100 µM (inactive),> 100 µM (inactive),–,> 100 µM (inactive),–,–,–
O=C1C2c3[nH]c4ccccc4c3[C@@H]3CCCCCCCCCCC3C2C(=O)N1c1ccccc1 (stereo partly specified),27.3 µM (inactive),–,–,22.2 µM (inactive),12.6 µM (inactive),13.5 µM (inactive),–,–,–
CC1(C)CCc2cc3c(cc2O1)OCC1c2cc4c(cc2OC31)OCO4 (stereo unspecified),–,52.1 µM (inactive),> 100 µM (inactive),82.4 µM (inactive),55.3 µM (inactive),> 100 µM (inactive),–,–,–
CC(=O)OC1[C@H]2c3cc4c(cc3CN3CCC(=C[C@@H]1O)C23)OCO4 (stereo partly specified),> 100 µM (inactive),–,77.8 µM (inactive),> 100 µM (inactive),–,48.6 µM (inactive),–,–,–
C[N+]1(C)C/C(=C\c2ccncc2)C(=O)/C(=C/c2ccncc2)C1,> 100 µM (inactive),–,> 100 µM (inactive),> 100 µM (inactive),–,> 100 µM (inactive),–,–,–
COc1ccc(/C=C/C(=O)c2c(-c3ccccc3)nn(C)c(=O)c2N2CCCCC2)cc1,15.9 µM (inactive),–,14.3 µM (inactive),25.3 µM (inactive),23.5 µM (inactive),16.6 µM (inactive),–,–,–
CC(NNC(=O)c1cc[n+]([BH2-]C#N)cc1)c1ccccc1 (stereo unspecified),–,–,–,–,–,–,> 100 µM (inactive),> 100 µM (inactive),> 100 µM (inactive)
Cc1cc2c(c(N)c1C)C(=O)c1ccccc1C2=O,24.4 µM (inactive),–,25 µM (inactive),65.5 µM (inactive),–,28.8 µM (inactive),–,–,–
CCCC(=O)OC[n+]1ccc2c(C)c3[nH]c4ccccc4c3c(C)c2c1,0.101 µM (active),–,0.478 µM (active),> 100 µM (inactive),0.378 µM (active),0.57 µM (active),–,–,–
Nc1c(-c2nc3ccccc3s2)[n+]([O-])c2ccccc2[n+]1[O-],–,–,48.2 µM (inactive),28 µM (inactive),–,28.4 µM (inactive),–,–,–
C=C(C)C(=O)O[C@H]1[C@H]2[C@H](OC(=O)[C@H]2C)[C@H](O)[C@@H](C)[C@@H]2C=CC(=O)[C@]21C,–,–,–,–,–,–,4.9 µM (inactive),2.58 µM (inactive),3.83 µM (inactive)
Cc1ccc(NCC2CC/C(=C\c3ccc(Cl)cc3)C2=O)cc1 (stereo unspecified),–,–,–,–,–,–,29 µM (inactive),13.6 µM (inactive),15.3 µM (inactive)
O=C1C(=CNc2ccc([N+](=O)[O-])cc2)C(=O)N(c2ccccc2)C(=O)N1c1ccccc1,–,–,–,–,–,–,> 100 µM (inactive),> 100 µM (inactive),> 100 µM (inactive)
CCC1CCc2c(OC)ccc(OCC(=O)O)c2C1=O (stereo unspecified),> 100 µM (inactive),> 100 µM (inactive),–,> 100 µM (inactive),–,> 100 µM (inactive),–,–,–
O=C(O)CCC1CCc2cccc3occ1c23 (stereo unspecified),> 100 µM (inactive),–,> 100 µM (inactive),> 100 µM (inactive),> 100 µM (inactive),> 100 µM (inactive),–,–,–
C[C@H](CCC1=NCCN1)[C@H]1CC[C@H]2[C@@H]3CC[C@@H]4C[C@H](O)CC[C@]4(C)[C@H]3CC[C@]12C,–,–,–,–,–,–,14.8 µM (inactive),10.1 µM (inactive),14.4 µM (inactive)
CN(C(=O)c1ccccc1)C1CCCC(=O)CC1 (stereo unspecified),–,–,–,–,–,–,> 100 µM (inactive),> 100 µM (inactive),> 100 µM (inactive)
O=C1CC23CC(=O)CC2(C1)c1ccccc1C3=O (stereo unspecified),> 100 µM (inactive),> 100 µM (inactive),> 100 µM (inactive),> 100 µM (inactive),–,> 100 µM (inactive),–,–,–
COc1cc(COC(=O)NC(Cc2cccs2)C(=O)O)c([N+](=O)[O-])cc1OC (stereo unspecified),–,–,–,–,–,–,> 100 µM (inactive),> 100 µM (inactive),> 100 µM (inactive)
COc1ccc(-c2nnc(-c3c(C)n(C)n(-c4ccccc4)c3=O)o2)cc1,> 100 µM (inactive),> 100 µM (inactive),> 100 µM (inactive),> 100 µM (inactive),–,> 100 µM (inactive),–,–,–
COc1cc(OC)c2c(c1)OC(c1ccccc1)CC2=O (stereo unspecified) [DIMETHYLPINOCEMBRIN],–,–,–,–,–,–,> 10 µM (inactive),> 10 µM (inactive),> 10 µM (inactive)
COC(=O)c1onc(-c2c(OC)cc(OC)cc2OC)c1C(=O)OC,> 100 µM (inactive),> 100 µM (inactive),> 100 µM (inactive),> 100 µM (inactive),–,> 100 µM (inactive),–,–,–

SMILES,GI50 (DMS-273),GI50 (XF498),GI50 (KM-20L2),GI50 (M19-MEL),GI50 (RXF 631),GI50 (LXFL 529),GI50 (Hs-578T),GI50 (MDA-N),GI50 (BT-549)
CN1CCc2c(sc3ncn(N)c(=N)c23)C1,–,–,–,–,–,–,> 100 µM (inactive),> 100 µM (inactive),> 100 µM (inactive)
CNS(=O)(=O)NNS(=O)(=O)c1ccc(Cl)cc1,–,–,> 100 µM (inactive),> 100 µM (inactive),> 100 µM (inactive),–,–,–,–
O=C(C#Cc1cn(C2CC(O)C(CO)O2)c(=O)[nH]c1=O)c1ccccc1 (stereo unspecified),–,–,–,–,–,–,79.3 µM (inactive),60.3 µM (inactive),37.2 µM (inactive)
C[C@H]1CCC2C(CN3CCCCC3)C(=O)OC2[C@]2(C)C(=O)CC(N3CCCCC3)C12O (stereo partly specified),3.57 µM (inactive),–,7.91 µM (inactive),5.3 µM (inactive),1.28 µM (inactive),–,–,–,–
CCOC(=N)CC(=O)Nc1ccc(Cl)cc1,> 100 µM (inactive),> 100 µM (inactive),> 100 µM (inactive),> 100 µM (inactive),–,> 100 µM (inactive),–,–,–
CCC(C)C(NC(=O)C(CCCCN)NC(=O)C(NC(=O)C(CCC(N)=O)NC(=O)C(CCCNC(=N)N)NC(C)=O)C(C)CC)C(=O)NC(Cc1c[nH]c2ccccc12)C(=O)NC(Cc1ccccc1)C(=O)NC(CCC(N)=O)C(=O)NC(CC(N)=O)C(=O)NC(CCCNC(=N)N)C(=O)NC(CCCNC(=N)N)C(=O)NC(CCSC)C(=O)NC(CCCCN)C(=O)NC(Cc1c[nH]c2ccccc12)C(=O)NC(CCCCN)C(=O)NC(CCCCN)C(N)=O (stereo unspecified),–,–,–,–,–,–,> 50 µM (inactive),> 50 µM (inactive),> 50 µM (inactive)
c1ccc(CCN(Cc2nc3ccccc3[nH]2)Cc2nc3ccccc3[nH]2)cc1,–,–,–,–,–,–,20.2 µM (inactive),16.2 µM (inactive),12.1 µM (inactive)
c1ccc(C2C3=C(Nc4ncnn42)c2ccccc2C3)cc1 (stereo unspecified),12.1 µM (inactive),15.4 µM (inactive),7.89 µM (inactive),9.75 µM (inactive),> 100 µM (inactive),–,–,–,–
C=C1CC(c2ccc(O)c(OC)c2)Oc2c(OC)cccc21 (stereo unspecified),18.3 µM (inactive),–,> 100 µM (inactive),48 µM (inactive),–,26.2 µM (inactive),–,–,–
CCN(CC)CCc1c2c(nc3ccccc13)C(=O)c1cccnc1C2=O,–,–,–,–,–,–,4.99 µM (inactive),1.67 µM (inactive),2.4 µM (inactive)
COc1cc(C2C(Cl)C(=O)N2NC(=O)Cc2ccccc2)cc(Br)c1O (stereo unspecified),> 100 µM (inactive),> 100 µM (inactive),> 100 µM (inactive),> 100 µM (inactive),–,86.3 µM (inactive),–,–,–
COc1ccc(C(CC(=O)c2ccc3c(c2)OCO3)c2c(O)oc3ccccc3c2=O)cc1OC (stereo unspecified),–,–,–,–,–,–,45.8 µM (inactive),> 100 µM (inactive),36.2 µM (inactive)
C/C(=N\NC(=N)N)C(CN(C)C)C(c1ccccc1)c1c(O)c2ccccc2oc1=O (stereo unspecified),> 100 µM (inactive),> 100 µM (inactive),> 100 µM (inactive),> 100 µM (inactive),–,> 100 µM (inactive),> 100 µM (inactive),> 100 µM (inactive),72.9 µM (inactive)
CCOP(=O)(OCC)C1C(CO)OC(n2ccc(=O)[nH]c2=O)C1O (stereo unspecified),–,–,–,–,–,–,> 100 µM (inactive),> 100 µM (inactive),> 100 µM (inactive)
Cc1c(S(=O)(=O)N/C(N)=N/c2ccc(Cl)cc2)sc2ccc(Cl)cc12,–,–,–,–,–,–,21.7 µM (inactive),20.1 µM (inactive),24.4 µM (inactive)
COc1ccc(OCc2ccc3nc(-c4ccccc4)c(Cl)nc3c2)cc1,–,–,–,–,–,–,23.4 µM (inactive),52.7 µM (inactive),0.018 µM (active)
C/C(CN1C(=O)c2ccccc2C1=O)=N\NS(=O)(=O)c1ccc(F)cc1,> 100 µM (inactive),> 100 µM (inactive),> 100 µM (inactive),–,–,> 100 µM (inactive),–,–,–
O=C1c2ccc(O)cc2C(=O)c2ccc(O)cc21,49.2 µM (inactive),> 100 µM (inactive),–,> 100 µM (inactive),75 µM (inactive),87.3 µM (inactive),–,–,–
CCCCCCC1CC(=O)C1(Cl)Cl (stereo unspecified),–,–,–,–,–,–,20 µM (inactive),25.9 µM (inactive),21.4 µM (inactive)
Cc1ccc(NC(=O)C(=O)C2C(=O)NC(=O)NC2=O)cc1C,> 100 µM (inactive),> 100 µM (inactive),> 100 µM (inactive),> 100 µM (inactive),–,> 100 µM (inactive),–,–,–
CC(=O)Nc1ccc(/C=c2\sc3nnc(-c4cccnc4)n3c2=O)cc1,25.1 µM (inactive),–,17.5 µM (inactive),18.1 µM (inactive),18.1 µM (inactive),15.9 µM (inactive),–,–,–
COc1cc2nc(-c3c(F)cccc3F)n(Cc3c(F)cccc3F)c2cc1Cc1c(F)cccc1F,–,–,–,–,–,–,> 20.5 µM (inactive),> 100 µM (inactive),> 71.8 µM (inactive)
Cc1noc(C)c1CCCOC1COc2ccccc2OCCOCCOc2ccccc2OC1,> 100 µM (inactive),> 100 µM (inactive),> 100 µM (inactive),> 100 µM (inactive),–,> 100 µM (inactive),–,–,–
CCOC(=O)Nn1c(C)cc(C(=O)OC)c1C,> 100 µM (inactive),> 100 µM (inactive),> 100 µM (inactive),> 100 µM (inactive),–,> 100 µM (inactive),–,–,–
